Measurements published in PubChem BioAssay AID504934 (The Scripps Research Institute Molecular Screening Center, 2011).
Activity calls are given as the source filed them. No rule for the calls is given here.

Key:
Experiment in all cases: PubChem AID 504934
AR = settings: nuclear receptor panel Gal4 luciferase reporter, at 10 µM
[1] = molecular target: Bile acid receptor (Homo sapiens) (UniProt Q96RI1); settings: nuclear receptor panel Gal4 luciferase reporter, FXR, at 10 µM
[2] = molecular target: COUP transcription factor 2 (Homo sapiens) (UniProt P24468); settings: nuclear receptor panel Gal4 luciferase reporter, Coup-TF2, at 10 µM
Sequence of COUP transcription factor 2 (Homo sapiens) (P24468 whole entry, looked up, the tested form may be a part): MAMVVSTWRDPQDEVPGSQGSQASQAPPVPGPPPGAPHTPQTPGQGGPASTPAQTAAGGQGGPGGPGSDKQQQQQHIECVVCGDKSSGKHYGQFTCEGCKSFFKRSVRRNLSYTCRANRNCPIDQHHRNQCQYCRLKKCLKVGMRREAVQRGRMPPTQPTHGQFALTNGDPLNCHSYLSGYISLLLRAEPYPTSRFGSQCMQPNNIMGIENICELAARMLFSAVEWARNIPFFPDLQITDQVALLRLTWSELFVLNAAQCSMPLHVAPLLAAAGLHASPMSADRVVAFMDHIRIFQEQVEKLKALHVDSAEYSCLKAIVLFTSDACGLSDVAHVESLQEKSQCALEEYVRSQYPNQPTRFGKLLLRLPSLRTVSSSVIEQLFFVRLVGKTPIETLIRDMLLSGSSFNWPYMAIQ

Coup-TF1 = settings: nuclear receptor panel Gal4 luciferase reporter, at 10 µM
EAR-2 (COUP-TF3) = settings: nuclear receptor panel Gal4 luciferase reporter, at 10 µM
ERRb = settings: nuclear receptor panel Gal4 luciferase reporter, at 10 µM
[3] = molecular target: Estrogen receptor (Homo sapiens) (UniProt P03372); settings: nuclear receptor panel Gal4 luciferase reporter, ESR1 (ESRA; Era), at 10 µM
[4] = molecular target: Estrogen receptor beta (Homo sapiens) (UniProt Q92731); settings: nuclear receptor panel Gal4 luciferase reporter, Erb (ESR2), at 10 µM
Sequence of Estrogen receptor beta (Homo sapiens) (Q92731 whole entry, looked up, the tested form may be a part): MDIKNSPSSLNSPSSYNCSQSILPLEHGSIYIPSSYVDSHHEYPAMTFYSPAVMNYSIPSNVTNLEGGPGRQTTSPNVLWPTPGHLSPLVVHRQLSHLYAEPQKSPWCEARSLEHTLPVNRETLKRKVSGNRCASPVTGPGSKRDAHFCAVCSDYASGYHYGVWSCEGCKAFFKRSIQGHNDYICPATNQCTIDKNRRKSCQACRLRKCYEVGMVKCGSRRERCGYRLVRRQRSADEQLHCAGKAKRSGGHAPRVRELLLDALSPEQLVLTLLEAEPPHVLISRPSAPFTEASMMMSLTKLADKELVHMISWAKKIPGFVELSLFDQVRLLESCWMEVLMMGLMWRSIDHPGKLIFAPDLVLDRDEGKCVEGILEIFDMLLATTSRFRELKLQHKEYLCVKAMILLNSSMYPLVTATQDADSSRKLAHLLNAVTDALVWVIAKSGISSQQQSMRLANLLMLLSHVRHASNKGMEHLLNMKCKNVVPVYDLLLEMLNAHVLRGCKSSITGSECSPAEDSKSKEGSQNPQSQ

GCNR = settings: nuclear receptor panel Gal4 luciferase reporter, at 10 µM
[5] = molecular target: Glucocorticoid receptor (Homo sapiens) (UniProt P04150); settings: nuclear receptor panel Gal4 luciferase reporter, GCCR, at 10 µM
Sequence of Glucocorticoid receptor (Homo sapiens) (P04150 whole entry, looked up, the tested form may be a part): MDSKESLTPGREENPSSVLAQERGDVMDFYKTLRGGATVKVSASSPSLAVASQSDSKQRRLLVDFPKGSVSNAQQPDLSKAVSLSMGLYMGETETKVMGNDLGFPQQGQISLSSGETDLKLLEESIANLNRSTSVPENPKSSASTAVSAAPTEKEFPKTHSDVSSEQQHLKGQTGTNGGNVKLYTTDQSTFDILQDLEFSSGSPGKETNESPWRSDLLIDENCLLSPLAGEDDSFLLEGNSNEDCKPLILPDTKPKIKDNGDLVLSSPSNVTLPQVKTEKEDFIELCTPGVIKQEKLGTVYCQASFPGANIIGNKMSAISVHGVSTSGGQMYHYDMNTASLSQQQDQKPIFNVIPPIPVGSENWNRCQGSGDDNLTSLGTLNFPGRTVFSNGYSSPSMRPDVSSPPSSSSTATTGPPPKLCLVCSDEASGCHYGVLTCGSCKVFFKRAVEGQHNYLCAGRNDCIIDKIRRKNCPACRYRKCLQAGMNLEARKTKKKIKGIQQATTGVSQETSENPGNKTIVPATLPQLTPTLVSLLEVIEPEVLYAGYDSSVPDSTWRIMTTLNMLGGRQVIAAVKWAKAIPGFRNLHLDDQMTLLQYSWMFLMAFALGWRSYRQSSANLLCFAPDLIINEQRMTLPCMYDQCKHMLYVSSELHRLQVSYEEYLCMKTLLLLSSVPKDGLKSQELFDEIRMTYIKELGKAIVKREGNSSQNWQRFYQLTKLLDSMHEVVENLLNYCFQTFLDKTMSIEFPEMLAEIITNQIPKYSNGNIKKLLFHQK

[6] = molecular target: Hepatocyte nuclear factor 4-alpha (Homo sapiens) (UniProt P41235); settings: nuclear receptor panel Gal4 luciferase reporter, HNF4a, at 10 µM
Sequence of Hepatocyte nuclear factor 4-alpha (Homo sapiens) (P41235 whole entry, looked up, the tested form may be a part): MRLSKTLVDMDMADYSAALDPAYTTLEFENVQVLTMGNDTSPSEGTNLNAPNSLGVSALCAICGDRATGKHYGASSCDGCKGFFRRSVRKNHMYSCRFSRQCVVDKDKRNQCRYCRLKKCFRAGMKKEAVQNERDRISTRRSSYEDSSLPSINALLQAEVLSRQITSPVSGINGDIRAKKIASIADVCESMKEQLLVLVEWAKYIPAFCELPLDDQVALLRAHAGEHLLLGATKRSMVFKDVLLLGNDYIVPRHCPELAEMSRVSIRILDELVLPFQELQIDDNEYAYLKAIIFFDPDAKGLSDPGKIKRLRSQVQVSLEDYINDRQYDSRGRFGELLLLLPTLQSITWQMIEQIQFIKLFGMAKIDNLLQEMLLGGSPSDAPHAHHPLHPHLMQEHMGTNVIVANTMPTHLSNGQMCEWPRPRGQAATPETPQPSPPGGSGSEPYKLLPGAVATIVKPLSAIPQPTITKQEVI

NOR1 = settings: nuclear receptor panel Gal4 luciferase reporter, at 10 µM
[7] = molecular target: Nuclear receptor subfamily 0 group B member 1 (Homo sapiens) (UniProt P51843); settings: nuclear receptor panel Gal4 luciferase reporter, DAX, at 10 µM
Sequence of Nuclear receptor subfamily 0 group B member 1 (Homo sapiens) (P51843 whole entry, looked up, the tested form may be a part): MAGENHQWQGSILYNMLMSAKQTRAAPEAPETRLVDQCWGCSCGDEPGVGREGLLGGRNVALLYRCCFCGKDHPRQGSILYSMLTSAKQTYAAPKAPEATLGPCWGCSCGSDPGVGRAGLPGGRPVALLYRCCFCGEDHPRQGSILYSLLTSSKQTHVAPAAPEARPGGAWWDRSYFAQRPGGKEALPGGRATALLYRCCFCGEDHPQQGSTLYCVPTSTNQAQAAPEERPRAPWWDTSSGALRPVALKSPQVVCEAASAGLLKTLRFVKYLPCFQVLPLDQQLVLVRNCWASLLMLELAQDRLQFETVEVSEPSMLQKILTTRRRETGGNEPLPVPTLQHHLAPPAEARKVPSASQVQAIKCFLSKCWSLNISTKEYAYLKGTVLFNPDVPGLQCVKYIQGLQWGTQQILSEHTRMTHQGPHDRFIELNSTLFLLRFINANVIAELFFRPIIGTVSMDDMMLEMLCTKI

Nur77 = settings: nuclear receptor panel Gal4 luciferase reporter, at 10 µM
PGR = settings: nuclear receptor panel Gal4 luciferase reporter, at 10 µM
PPARd = settings: nuclear receptor panel Gal4 luciferase reporter, at 10 µM
[8] = molecular target: Peroxisome proliferator-activated receptor alpha (Homo sapiens) (UniProt Q07869); settings: nuclear receptor panel Gal4 luciferase reporter, PPARa, at 10 µM
Sequence of Peroxisome proliferator-activated receptor alpha (Homo sapiens) (Q07869 whole entry, looked up, the tested form may be a part): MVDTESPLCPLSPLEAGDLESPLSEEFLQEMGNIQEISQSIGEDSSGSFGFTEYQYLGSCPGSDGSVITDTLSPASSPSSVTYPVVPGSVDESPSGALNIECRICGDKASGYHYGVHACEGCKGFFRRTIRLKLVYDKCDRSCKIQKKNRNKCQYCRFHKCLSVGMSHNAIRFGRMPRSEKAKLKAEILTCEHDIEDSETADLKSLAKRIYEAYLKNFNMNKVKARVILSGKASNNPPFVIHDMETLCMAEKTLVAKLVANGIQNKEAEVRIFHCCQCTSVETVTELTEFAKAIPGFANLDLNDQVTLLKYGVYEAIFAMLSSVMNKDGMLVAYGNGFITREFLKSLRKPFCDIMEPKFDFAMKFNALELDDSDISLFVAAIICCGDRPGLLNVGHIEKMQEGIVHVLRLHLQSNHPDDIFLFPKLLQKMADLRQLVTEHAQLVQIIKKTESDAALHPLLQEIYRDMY

RARb = settings: nuclear receptor panel Gal4 luciferase reporter, at 10 µM
RXRg = settings: nuclear receptor panel Gal4 luciferase reporter, at 10 µM
[9] = molecular target: Retinoic acid receptor RXR-beta (Homo sapiens) (UniProt P28702); settings: nuclear receptor panel Gal4 luciferase reporter, RXRb, at 10 µM
Sequence of Retinoic acid receptor RXR-beta (Homo sapiens) (P28702 whole entry, looked up, the tested form may be a part): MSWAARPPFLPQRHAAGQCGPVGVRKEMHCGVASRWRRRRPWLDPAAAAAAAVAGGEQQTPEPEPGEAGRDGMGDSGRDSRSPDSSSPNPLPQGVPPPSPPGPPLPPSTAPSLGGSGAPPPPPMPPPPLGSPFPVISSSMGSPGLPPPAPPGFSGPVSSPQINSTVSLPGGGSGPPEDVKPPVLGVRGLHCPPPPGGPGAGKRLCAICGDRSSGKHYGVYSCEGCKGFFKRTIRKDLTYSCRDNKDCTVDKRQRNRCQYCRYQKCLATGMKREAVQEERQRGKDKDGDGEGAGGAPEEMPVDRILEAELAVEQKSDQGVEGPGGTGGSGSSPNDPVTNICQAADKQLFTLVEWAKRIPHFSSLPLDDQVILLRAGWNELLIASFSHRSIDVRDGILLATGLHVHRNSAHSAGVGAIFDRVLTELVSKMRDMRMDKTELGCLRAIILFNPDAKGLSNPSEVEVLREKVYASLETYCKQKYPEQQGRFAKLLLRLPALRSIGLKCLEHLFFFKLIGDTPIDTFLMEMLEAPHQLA

Rev-erb b = settings: nuclear receptor panel Gal4 luciferase reporter, at 10 µM
[10] = molecular target: Steroidogenic factor 1 (Homo sapiens) (UniProt Q13285); settings: nuclear receptor panel Gal4 luciferase reporter, SF1, at 10 µM
Sequence of Steroidogenic factor 1 (Homo sapiens) (Q13285 whole entry, looked up, the tested form may be a part): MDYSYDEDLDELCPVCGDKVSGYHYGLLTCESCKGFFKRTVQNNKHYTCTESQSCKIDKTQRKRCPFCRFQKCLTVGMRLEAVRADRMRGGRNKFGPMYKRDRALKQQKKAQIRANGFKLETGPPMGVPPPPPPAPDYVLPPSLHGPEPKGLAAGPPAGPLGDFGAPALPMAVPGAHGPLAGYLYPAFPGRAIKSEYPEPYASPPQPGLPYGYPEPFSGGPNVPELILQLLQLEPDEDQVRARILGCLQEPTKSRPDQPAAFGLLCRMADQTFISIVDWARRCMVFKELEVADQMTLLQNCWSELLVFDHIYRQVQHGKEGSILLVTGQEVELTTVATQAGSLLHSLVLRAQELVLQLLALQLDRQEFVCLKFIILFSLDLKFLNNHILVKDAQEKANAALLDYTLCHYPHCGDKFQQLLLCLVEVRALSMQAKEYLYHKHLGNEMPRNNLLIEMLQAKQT

Sequence of Bile acid receptor (Homo sapiens) (Q96RI1 whole entry, looked up, the tested form may be a part): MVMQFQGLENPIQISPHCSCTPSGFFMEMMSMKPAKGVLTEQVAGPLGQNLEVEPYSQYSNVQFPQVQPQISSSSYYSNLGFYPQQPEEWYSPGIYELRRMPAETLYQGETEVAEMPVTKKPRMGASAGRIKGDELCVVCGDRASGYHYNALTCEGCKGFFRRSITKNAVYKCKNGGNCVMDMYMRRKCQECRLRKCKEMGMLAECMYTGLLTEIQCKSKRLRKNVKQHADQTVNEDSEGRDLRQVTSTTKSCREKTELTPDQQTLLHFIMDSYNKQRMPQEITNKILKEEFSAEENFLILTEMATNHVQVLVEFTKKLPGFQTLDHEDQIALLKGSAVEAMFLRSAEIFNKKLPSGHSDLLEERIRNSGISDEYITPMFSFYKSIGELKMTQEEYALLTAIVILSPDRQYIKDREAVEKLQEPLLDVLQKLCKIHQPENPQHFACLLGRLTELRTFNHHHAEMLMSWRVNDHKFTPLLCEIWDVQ

## O=c1cc(N2CCN(c3cccc(Cl)c3)CC2)[nH]c(=O)n1C1CCCCC1
AR
  fold change: 0.91 (inactive)
[1]
  fold change: 2.52
[2]
  fold change: 1.04 (inactive)
Coup-TF1
  fold change: 0.72
EAR-2 (COUP-TF3)
  fold change: 1 (inactive)
ERRb
  fold change: 1.02 (inactive)
[3]
  fold change: 0.61
[4]
  fold change: 0.56
GCNR
  fold change: 1.06 (inactive)
[5]
  fold change: 1.13 (inactive)
[6]
  fold change: 0.61
NOR1
  fold change: 0.87 (inactive)
[7]
  fold change: 1.03 (inactive)
Nur77
  fold change: 0.72
PGR
  fold change: 0.97 (inactive)
PPARd
  fold change: 1.54
[8]
  fold change: 1.11 (inactive)
RARb
  fold change: 0.54
RXRg
  fold change: 0.81 (inactive)
[9]
  fold change: 0.78
Rev-erb b
  fold change: 0.69
[10]
  fold change: 0.71
